This is an account of results in PubChem BioAssay (NCI).

Test systems include PC-3 prostate; HS 578T breast; COLO 205 colon; HCT-15 colon; UO-31 renal; HL-60(TB) leukemia; SNB-75 CNS; MDA-N; LOX IMVI melanoma; SK-MEL-2 melanoma; SK-OV-3 ovarian; NCI-H460 lung; NCI/ADR-RES ovarian; MDA-MB-231 breast; SW-620 colon; RPMI-8226 leukemia; HOP-92 NSCLC; NCI-H522 lung; HT29 colon; MOLT-4 leukemia.
Assay in all cases: NCI anticancer screen, dose series, 48 h

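Results reflect a 48-hour exposure of cells in 96-well plates to compound at five concentrations. Definition used: TGI = concentration required for complete inhibition of growth.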

On to `COc1ccc(-c2nc(N(C)C)c3ccccc3n2)cc1`, for which the TGI in the experiment with PC-3 prostate is 58.8 µM; with HS 578T breast, 59.2 µM; in the experiment on COLO 205 colon, 29.6 µM; in the experiment on HCT-15 colon, 37.8 µM; with UO-31 renal, 15.8 µM; in the experiment with HL-60(TB) leukemia, 32.2 µM. In addition, the TGI stood at 40.4 µM in the experiment on SNB-75 CNS; 32.5 µM in the experiment on MDA-N; 28.8 µM with LOX IMVI melanoma; 41.7 µM with SK-MEL-2 melanoma; 48.2 µM with SK-OV-3 ovarian; 26.9 µM in the experiment with NCI-H460 lung. For the same compound, the TGI was determined as 36.7 µM in the experiment with NCI/ADR-RES ovarian; 96.5 µM in the experiment with MDA-MB-231 breast; 63.5 µM in the experiment on SW-620 colon; 24.3 µM in the experiment with RPMI-8226 leukemia; 68.8 µM with HOP-92 NSCLC; 27.8 µM with NCI-H522 lung. Further, the values for the TGI in the experiment on HT29 colon and with MOLT-4 leukemia were 22.7 µM and 15.8 µM, respectively.
As to `COc1ccc(OC)c(C2CCCc3c2cnc2nc(N)nc(N)c32)c1` (centres undefined), the TGI with PC-3 prostate, in the experiment with HS 578T breast, in the experiment on COLO 205 colon, in the experiment on HCT-15 colon, in the experiment with UO-31 renal and with HL-60(TB) leukemia was over 100 µM in each case. The TGI is 41 µM in the experiment on SNB-75 CNS; over 100 µM in the experiment with MDA-N; over 100 µM in the experiment with LOX IMVI melanoma; over 100 µM with SK-MEL-2 melanoma; over 100 µM in the experiment on SK-OV-3 ovarian; over 100 µM in the experiment with NCI-H460 lung. In addition, the TGI in the experiment on NCI/ADR-RES ovarian, with MDA-MB-231 breast, with SW-620 colon, with RPMI-8226 leukemia, in the experiment on HOP-92 NSCLC and with NCI-H522 lung was over 100 µM each time. Also, the TGI in the experiment on HT29 colon and with MOLT-4 leukemia was over 100 µM each time.
As for `COc1ccc(-n2nnc3c(C#N)c(-c4ccccc4)c(C)n3c2=O)cc1`, the TGI in the experiment on PC-3 prostate was over 100 µM; with HS 578T breast, over 100 µM; with COLO 205 colon, over 100 µM; with HCT-15 colon, over 100 µM; with UO-31 renal, over 100 µM; in the experiment with HL-60(TB) leukemia it was 68.2 µM. Also, the TGI with SNB-75 CNS was 72.1 µM; in the experiment on MDA-N it was over 100 µM; with LOX IMVI melanoma, over 100 µM; in the experiment with SK-MEL-2 melanoma it was 83.8 µM; in the experiment with SK-OV-3 ovarian, over 100 µM; with NCI-H460 lung, over 100 µM. Besides, the TGI with NCI/ADR-RES ovarian is over 100 µM; with MDA-MB-231 breast, 81.6 µM; with SW-620 colon, over 100 µM; in the experiment with RPMI-8226 leukemia it was over 100 µM; in the experiment with HOP-92 NSCLC, over 100 µM; with NCI-H522 lung, over 100 µM. The TGI in the experiment with HT29 colon is over 100 µM.
`COc1ccc(C2=NN(C(=O)c3ccccc3)C(O)(c3cc(F)c(Cl)cc3Cl)C2)cc1OC` (centres undefined): the TGI is over 100 µM in the experiment on PC-3 prostate; over 100 µM with HS 578T breast; over 100 µM in the experiment with COLO 205 colon; over 100 µM in the experiment on HCT-15 colon; 89.4 µM in the experiment on UO-31 renal; over 100 µM with HL-60(TB) leukemia. The TGI in the experiment with MDA-N is over 100 µM; with LOX IMVI melanoma, over 100 µM; in the experiment on SK-MEL-2 melanoma it was 91.7 µM; in the experiment on SK-OV-3 ovarian it was 48.8 µM; in the experiment with NCI-H460 lung, over 100 µM; in the experiment with NCI/ADR-RES ovarian, over 100 µM. The TGI in the experiment with MDA-MB-231 breast is over 100 µM; in the experiment with SW-620 colon, over 100 µM; in the experiment on RPMI-8226 leukemia, over 100 µM; in the experiment with HOP-92 NSCLC, 78.9 µM; with NCI-H522 lung it was over 100 µM; in the experiment on HT29 colon it was over 100 µM. In the experiment on MOLT-4 leukemia, this compound displayed a TGI of over 100 µM.
For `COC(=O)c1cc(C)n2c1CS[C@@H]2c1ccccc1`, the TGI in the experiment on PC-3 prostate is over 100 µM; in the experiment on HS 578T breast, over 100 µM; with COLO 205 colon, 80 µM; in the experiment with HCT-15 colon it was over 100 µM; in the experiment on UO-31 renal it was over 100 µM; in the experiment on HL-60(TB) leukemia, over 100 µM. The TGI in the experiment with SNB-75 CNS is 81.3 µM; in the experiment on MDA-N, over 100 µM; in the experiment on LOX IMVI melanoma, over 100 µM; in the experiment with SK-MEL-2 melanoma, 91.8 µM; in the experiment with SK-OV-3 ovarian, over 100 µM; with NCI/ADR-RES ovarian, 87 µM. The TGI was over 100 µM in the experiment with MDA-MB-231 breast; over 100 µM in the experiment on SW-620 colon; 84.5 µM in the experiment on RPMI-8226 leukemia; 76.8 µM in the experiment with HOP-92 NSCLC; 82 µM in the experiment on NCI-H522 lung; over 100 µM with HT29 colon. Besides, the TGI with MOLT-4 leukemia came to 71.1 µM.
In the case of `Cc1nc2c(=O)[nH]c3ccccc3c2o1`, the TGI in the experiment with PC-3 prostate, in the experiment with HS 578T breast, in the experiment on COLO 205 colon, with HCT-15 colon, in the experiment on UO-31 renal and with HL-60(TB) leukemia was over 100 µM each time. In addition, the TGI in the experiment on SNB-75 CNS, in the experiment on MDA-N, in the experiment on LOX IMVI melanoma, with SK-MEL-2 melanoma, with SK-OV-3 ovarian and in the experiment on NCI-H460 lung was over 100 µM throughout. For the same compound, the TGI in the experiment with NCI/ADR-RES ovarian, in the experiment with MDA-MB-231 breast, with SW-620 colon, in the experiment with RPMI-8226 leukemia, with HOP-92 NSCLC and in the experiment with HT29 colon was over 100 µM in each case.
For the compound `COC(=O)[C@@]12CC[C@]1(C(=O)OC)C1C(C)=CC(=O)O[C@@]12C` (some centres undefined), the TGI with PC-3 prostate, with HS 578T breast, with COLO 205 colon, in the experiment with HCT-15 colon, in the experiment on UO-31 renal and with HL-60(TB) leukemia was over 100 µM in each case. The TGI in the experiment with SNB-75 CNS, with MDA-N, with LOX IMVI melanoma, in the experiment with SK-OV-3 ovarian, in the experiment with NCI-H460 lung and in the experiment on NCI/ADR-RES ovarian was over 100 µM each time. Further, the TGI with MDA-MB-231 breast, with SW-620 colon, with RPMI-8226 leukemia, in the experiment on HOP-92 NSCLC, in the experiment on NCI-H522 lung and in the experiment with HT29 colon was over 100 µM each time. Besides, the TGI in the experiment on MOLT-4 leukemia was over 100 µM.
